Reference: patent US9469631B2 (Boehringer Ingelheim International GmbH, priority 2012, dated 2016)

Biological target: human GPR119 (Homo sapiens (Human), UniProt Q8TDV5)
Assay: AlphaScreen cAMP assay in MIN6 cells stably transfected with human GPR119
Format: cell-based
Details: Min-6/hGPR119 cells, 45 min incubation at room temperature
Outline: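 MIN6 cells stably expressing human GPR119 were seeded at 10000 cells/well for 24 h. Compounds were then applied in pH 7.4 buffer with 0.5 mM IBMX, 0.1% BSA and 1% DMSO for 45 min at about 20 °C. Intracellular cAMP was measured by AlphaScreen.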

human GPR119, sequence (Q8TDV5 whole entry): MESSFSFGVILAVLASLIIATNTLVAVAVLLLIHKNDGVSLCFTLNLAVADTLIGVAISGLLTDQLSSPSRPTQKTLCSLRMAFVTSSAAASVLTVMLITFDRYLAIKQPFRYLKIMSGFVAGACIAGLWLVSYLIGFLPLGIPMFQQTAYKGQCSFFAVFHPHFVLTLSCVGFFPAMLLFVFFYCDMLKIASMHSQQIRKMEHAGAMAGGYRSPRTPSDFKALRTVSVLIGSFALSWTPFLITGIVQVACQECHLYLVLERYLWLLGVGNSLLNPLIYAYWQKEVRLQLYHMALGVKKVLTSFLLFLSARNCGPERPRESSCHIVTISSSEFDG

| SMILES | EC50 |
| --- | --- |
| COc1ccc(-c2ccc(C(=O)N(C3CC3)C3CCN(C(=O)OC(C)(C)C)CC3)cc2)cn1 [Example 96, 4-{Cyclopropyl-[4-(6-methoxy-pyridin-3-yl)-benzoyl]-amino}-piperidine-1-carboxylic acid tert-butyl ester] | 131 nM |
| CC(C)(C)NS(=O)(=O)c1ccccc1-c1ccc(C(=O)N(C2CC2)C2CCN(C(=O)OC(C)(C)C)CC2)cc1 [Example 97, 4-[(2′-tert-Butylsulfamoyl-biphenyl-4-carbonyl)-cyclopropyl-amino]-piperidine-1-carboxylic acid tert-butyl ester] | 161 nM |
| CC(C)(C)OC(=O)N1CCC(N(C(=O)c2ccc(-c3ccc(CO)cc3)cc2)C2CC2)CC1 [Example 98, 4-[Cyclopropyl-(4′-hydroxymethyl-biphenyl-4-carbonyl)-amino]-piperidine-1-carboxylic acid tert-butyl ester] | 68 nM |
| COc1ncc(-c2ccc(C(=O)N(C3CC3)C3CCN(C(=O)OC(C)(C)C)CC3)cc2)cn1 [Example 99, 4-{Cyclopropyl-[4-(2-methoxy-pyrimidin-5-yl)-benzoyl]-amino}-piperidine-1-carboxylic acid tert-butyl ester] | 55 nM |
| CC(C)(C)OC(=O)N1CCC(N(C(=O)c2ccc(-c3ccc(C#N)nc3)cc2)C2CC2)CC1 [Example 100, 4-{[4-(6-Cyano-pyridin-3-yl)-benzoyl]-cyclopropyl-amino}-piperidine-1-carboxylic acid tert-butyl ester] | 34 nM |
| CC(C)(C)OC(=O)N1CCC(N(C(=O)c2ccc(-c3ccc(N4CCOCC4)cc3)cc2)C2CC2)CC1 [Example 101, 4-[Cyclopropyl-(4′-morpholin-4-yl-biphenyl-4-carbonyl)-amino]-piperidine-1-carboxylic acid tert-butyl ester] | 127 nM |
| CC(C)(C)OC(=O)N1CCC(N(C(=O)c2ccc(-c3ccc(C(N)=O)cc3)cc2)C2CC2)CC1 [Example 102, 4-[(4′-Carbamoyl-biphenyl-4-carbonyl)-cyclopropyl-amino]-piperidine-1-carboxylic acid tert-butyl ester] | 39 nM |
| COC(=O)c1ccc(-c2ccc(C(=O)N(C3CC3)C3CCN(C(=O)OC(C)(C)C)CC3)cc2)cn1 [Example 107, 5-{4-[(1-tert-Butoxycarbonyl-piperidin-4-yl)-cyclopropyl-carbamoyl]-phenyl}-pyridine-2-carboxylic acid methyl ester] | 66 nM |

More lines, now with the values ahead:

| EC50 | SMILES |
| --- | --- |
| 51 nM | CCNC(=O)c1ccc(-c2ccc(C(=O)N(C3CC3)C3CCN(C(=O)OC(C)(C)C)CC3)cc2)cc1 [Example 103, 4-[Cyclopropyl-(4′-ethylcarbamoyl-biphenyl-4-carbonyl)-amino]-piperidine-1-carboxylic acid tert-butyl ester] |
| 333 nM | CC(=O)NCc1ccc(-c2ccc(C(=O)N(C3CC3)C3CCN(C(=O)OC(C)(C)C)CC3)cc2)cc1 [Example 104, 4-{[4′-(Acetylamino-methyl)-biphenyl-4-carbonyl]-cyclopropyl-amino}-piperidine-1-carboxylic acid tert-butyl ester] |
| 115 nM | CC(C)(C)OC(=O)N1CCC(N(C(=O)c2ccc(-c3ccc(S(N)(=O)=O)cc3)cc2)C2CC2)CC1 [Example 105, 4-[Cyclopropyl-(4′-sulfamoyl-biphenyl-4-carbonyl)-amino]-piperidine-1-carboxylic acid tert-butyl ester] |
| 78 nM | CC(C)(C)OC(=O)N1CCC(N(C(=O)c2ccc(-c3ccc(C#N)c(F)c3)cc2)C2CC2)CC1 [Example 106, 4-[(4′-Cyano-3′-fluoro-biphenyl-4-carbonyl)-cyclopropyl-amino]-piperidine-1-carboxylic acid tert-butyl ester] |
| 461 nM | CC(C)(C)OC(=O)N1CCC(N(C(=O)c2ccc(-c3ccc(O)nc3)cc2)C2CC2)CC1 [Example 108, 4-{Cyclopropyl-[4-(6-hydroxy-pyridin-3-yl)-benzoyl]-amino}-piperidine-1-carboxylic acid tert-butyl ester] |
